Source: ChEMBL document CHEMBL4396887, “Five-Membered N-Heterocyclic Scaffolds as Novel Amino Bioisosteres at γ-Aminobutyric Acid (GABA) Type A Receptors and GABA Transporters” (J Med Chem, 2019)
pEC50, pIC50, pKi: −log10 of the molar value.

Tests used:
[1] = molecular target: T1, Sodium- and chloride-dependent GABA transporter 2 (Homo sapiens, UniProt Q9NSD5); assay: Inhibition of human GAT2 expressed in Flp-In CHO cells assessed as reduction in [3H]GABA uptake incubated for 3 mins by liquid scintillation counting method; format: cell-based
T1 sequence (Q9NSD5 whole entry): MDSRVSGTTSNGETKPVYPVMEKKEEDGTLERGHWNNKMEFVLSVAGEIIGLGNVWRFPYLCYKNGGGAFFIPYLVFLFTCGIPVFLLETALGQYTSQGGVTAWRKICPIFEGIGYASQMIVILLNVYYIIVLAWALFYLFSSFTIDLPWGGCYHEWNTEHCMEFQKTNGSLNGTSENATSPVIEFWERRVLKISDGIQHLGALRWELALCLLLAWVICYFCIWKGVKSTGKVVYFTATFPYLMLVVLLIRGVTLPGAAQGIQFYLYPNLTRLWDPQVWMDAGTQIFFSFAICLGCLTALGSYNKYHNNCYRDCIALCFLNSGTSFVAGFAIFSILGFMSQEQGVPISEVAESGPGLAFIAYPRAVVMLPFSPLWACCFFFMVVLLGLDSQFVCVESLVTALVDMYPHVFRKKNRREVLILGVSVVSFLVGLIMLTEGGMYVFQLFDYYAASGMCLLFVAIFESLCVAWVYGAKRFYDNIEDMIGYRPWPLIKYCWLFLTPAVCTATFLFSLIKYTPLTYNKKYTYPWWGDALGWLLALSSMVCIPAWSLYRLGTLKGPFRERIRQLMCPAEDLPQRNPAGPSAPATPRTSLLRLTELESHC

[2] = molecular target: T2, Sodium- and chloride-dependent GABA transporter 3 (Homo sapiens, UniProt P48066); assay: Inhibition of human GAT3 expressed in Flp-In CHO cells assessed as reduction in [3H]GABA uptake incubated for 3 mins by liquid scintillation counting method; format: cell-based; settings: read-out: IC50
T2 sequence (P48066 whole entry): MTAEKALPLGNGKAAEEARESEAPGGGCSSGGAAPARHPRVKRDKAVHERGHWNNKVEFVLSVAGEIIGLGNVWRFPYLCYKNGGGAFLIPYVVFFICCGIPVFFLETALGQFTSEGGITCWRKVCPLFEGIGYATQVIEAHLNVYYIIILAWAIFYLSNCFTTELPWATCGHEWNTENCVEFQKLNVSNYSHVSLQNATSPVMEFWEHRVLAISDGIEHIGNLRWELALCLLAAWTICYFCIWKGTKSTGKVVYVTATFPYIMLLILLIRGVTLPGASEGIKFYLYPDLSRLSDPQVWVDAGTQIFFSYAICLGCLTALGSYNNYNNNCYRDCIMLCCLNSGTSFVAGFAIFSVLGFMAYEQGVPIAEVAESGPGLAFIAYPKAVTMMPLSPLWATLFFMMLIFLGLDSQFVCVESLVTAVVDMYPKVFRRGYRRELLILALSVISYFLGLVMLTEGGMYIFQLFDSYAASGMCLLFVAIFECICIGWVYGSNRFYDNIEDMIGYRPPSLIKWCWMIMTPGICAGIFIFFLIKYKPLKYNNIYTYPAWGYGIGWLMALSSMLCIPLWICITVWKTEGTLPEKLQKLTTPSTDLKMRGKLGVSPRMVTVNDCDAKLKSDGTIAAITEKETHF

[3] = molecular target: GABA-A receptor; alpha-1/beta-2/gamma-2 (Homo sapiens) (UniProt P14867+P47870+P18507); assay: Agonist activity at recombinant human GABA-A alpha1beta2gamma2S receptor transiently expressed in human tsA201 cells assessed as GABA-induced maximum response incubated for 30 mins and measured up to 90 secs by FMP dye based FLIPR membrane potential blue assay relative to GABA; format: cell-based
[4] = molecular target: Gamma-aminobutyric acid receptor subunit alpha-4/beta-2/gamma-2 (Homo sapiens, UniProt P18507+P47870+P48169); assay: Agonist activity at recombinant human GABA-A alpha4beta2gamma2S receptor transiently expressed in human tsA201 cells incubated for 30 mins and measured up to 90 secs by FMP dye based FLIPR membrane potential blue assay; format: cell-based; settings: read-out: EC50
Chain of Gamma-aminobutyric acid receptor subunit alpha-4/beta-2/gamma-2 (Homo sapiens, UniProt P18507+P47870+P48169) (P48169 whole entry, one chain of several): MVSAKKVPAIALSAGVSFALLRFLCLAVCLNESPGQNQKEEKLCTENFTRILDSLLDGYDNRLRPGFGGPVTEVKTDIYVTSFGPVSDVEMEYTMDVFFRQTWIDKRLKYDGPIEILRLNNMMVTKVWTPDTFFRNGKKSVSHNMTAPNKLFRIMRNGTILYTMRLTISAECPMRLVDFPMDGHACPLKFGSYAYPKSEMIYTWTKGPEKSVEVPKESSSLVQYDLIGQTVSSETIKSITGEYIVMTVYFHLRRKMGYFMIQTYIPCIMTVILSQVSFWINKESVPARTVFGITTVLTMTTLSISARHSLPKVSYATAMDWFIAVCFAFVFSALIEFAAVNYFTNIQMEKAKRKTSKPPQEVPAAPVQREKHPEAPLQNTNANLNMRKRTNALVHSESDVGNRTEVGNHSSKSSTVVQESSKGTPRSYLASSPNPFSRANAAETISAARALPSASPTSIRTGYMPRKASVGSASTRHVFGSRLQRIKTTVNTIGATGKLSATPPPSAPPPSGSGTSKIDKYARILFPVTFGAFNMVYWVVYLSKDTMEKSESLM

[5] = molecular target: GABA-A receptor; anion channel; assay: Displacement of [3H]muscimol from GABA(A) receptor in Sprague-Dawley rat cortical synaptic membranes by liquid scintillation counting
[6] = molecular target: T3, Gamma-aminobutyric acid receptor subunit rho-1 (Homo sapiens, UniProt P24046); assay: Agonist activity at recombinant human GABA-A rho-1 receptor transiently expressed in human tsA201 cells incubated for 30 mins and measured up to 90 secs by FMP dye based FLIPR membrane potential blue assay; format: cell-based; settings: read-out: EC50
T3 sequence (P24046 whole entry): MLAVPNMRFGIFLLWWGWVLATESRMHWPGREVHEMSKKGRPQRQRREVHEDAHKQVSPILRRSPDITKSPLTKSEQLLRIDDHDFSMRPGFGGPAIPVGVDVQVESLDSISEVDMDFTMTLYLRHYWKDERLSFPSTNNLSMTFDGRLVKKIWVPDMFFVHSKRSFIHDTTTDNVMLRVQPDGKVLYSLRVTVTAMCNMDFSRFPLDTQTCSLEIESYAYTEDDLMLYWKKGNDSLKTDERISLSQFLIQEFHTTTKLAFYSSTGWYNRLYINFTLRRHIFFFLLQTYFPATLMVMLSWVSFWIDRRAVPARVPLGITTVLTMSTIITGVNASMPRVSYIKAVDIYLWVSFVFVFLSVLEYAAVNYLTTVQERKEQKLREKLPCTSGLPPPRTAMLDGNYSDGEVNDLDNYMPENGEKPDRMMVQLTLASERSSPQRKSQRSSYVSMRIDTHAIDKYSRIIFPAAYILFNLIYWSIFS

[7] = molecular target: Gamma-aminobutyric acid receptor subunit alpha-5/beta-2/gamma-2 (Homo sapiens) (UniProt P47870+P18507+P31644); assay: Agonist activity at recombinant human GABA-A alpha5beta2gamma2S receptor transiently expressed in human tsA201 cells assessed as GABA-induced maximum response incubated for 30 mins and measured up to 90 secs by FMP dye based FLIPR membrane potential blue assay relative to GABA; format: cell-based
[8] = molecular target: T4, GABA-A receptor; alpha-1/beta-2/gamma-2 (Homo sapiens, UniProt P14867+P18507+P47870); assay: Agonist activity at recombinant human GABA-A alpha1beta2gamma2S receptor transiently expressed in human tsA201 cells incubated for 30 mins and measured up to 90 secs by FMP dye based FLIPR membrane potential blue assay; format: cell-based
T4 sequence (P14867 whole entry): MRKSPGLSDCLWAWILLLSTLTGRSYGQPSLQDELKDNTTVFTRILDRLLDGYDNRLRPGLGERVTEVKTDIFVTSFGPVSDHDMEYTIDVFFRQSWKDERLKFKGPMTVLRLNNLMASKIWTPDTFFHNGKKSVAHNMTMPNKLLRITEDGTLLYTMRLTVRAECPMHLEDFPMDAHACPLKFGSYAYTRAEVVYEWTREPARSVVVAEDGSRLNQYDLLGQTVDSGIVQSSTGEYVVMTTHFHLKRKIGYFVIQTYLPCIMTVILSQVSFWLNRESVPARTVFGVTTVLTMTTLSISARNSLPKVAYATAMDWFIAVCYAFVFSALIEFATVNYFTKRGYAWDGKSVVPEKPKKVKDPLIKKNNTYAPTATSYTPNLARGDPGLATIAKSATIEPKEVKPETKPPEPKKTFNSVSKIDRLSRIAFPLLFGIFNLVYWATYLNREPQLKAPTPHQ
T4 sequence (P47870 whole entry): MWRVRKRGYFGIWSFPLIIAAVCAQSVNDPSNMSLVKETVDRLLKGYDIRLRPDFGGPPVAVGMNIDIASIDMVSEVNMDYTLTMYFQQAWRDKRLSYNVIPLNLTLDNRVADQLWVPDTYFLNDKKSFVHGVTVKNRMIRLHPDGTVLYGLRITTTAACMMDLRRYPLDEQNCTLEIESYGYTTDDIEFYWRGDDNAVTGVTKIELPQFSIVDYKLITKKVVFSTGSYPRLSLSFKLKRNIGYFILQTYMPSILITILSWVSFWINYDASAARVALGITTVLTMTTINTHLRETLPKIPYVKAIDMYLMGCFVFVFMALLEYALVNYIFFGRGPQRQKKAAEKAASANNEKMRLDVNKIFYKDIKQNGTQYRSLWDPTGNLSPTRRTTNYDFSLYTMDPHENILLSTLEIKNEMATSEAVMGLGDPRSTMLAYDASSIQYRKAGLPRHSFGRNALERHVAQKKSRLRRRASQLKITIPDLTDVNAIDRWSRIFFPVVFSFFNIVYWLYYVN
T4 sequence (P18507 whole entry): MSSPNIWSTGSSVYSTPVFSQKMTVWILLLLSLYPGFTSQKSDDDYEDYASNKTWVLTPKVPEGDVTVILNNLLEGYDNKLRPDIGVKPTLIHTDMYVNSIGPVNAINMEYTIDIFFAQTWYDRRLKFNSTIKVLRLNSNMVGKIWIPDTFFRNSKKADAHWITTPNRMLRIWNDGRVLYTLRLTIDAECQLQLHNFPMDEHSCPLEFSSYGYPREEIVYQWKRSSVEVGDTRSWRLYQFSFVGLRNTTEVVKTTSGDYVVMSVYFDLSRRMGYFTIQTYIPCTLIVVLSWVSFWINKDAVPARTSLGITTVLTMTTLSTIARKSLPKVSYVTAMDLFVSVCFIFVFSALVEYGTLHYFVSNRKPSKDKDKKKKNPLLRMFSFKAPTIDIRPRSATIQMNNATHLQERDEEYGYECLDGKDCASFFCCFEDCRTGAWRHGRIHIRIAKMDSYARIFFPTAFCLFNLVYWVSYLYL

[9] = molecular target: T5, Gamma-aminobutyric acid receptor subunit alpha-5/beta-2/gamma-2 (Homo sapiens, UniProt P18507+P31644+P47870); assay: Agonist activity at recombinant human GABA-A alpha5beta2gamma2S receptor transiently expressed in human tsA201 cells incubated for 30 mins and measured up to 90 secs by FMP dye based FLIPR membrane potential blue assay; format: cell-based
T5 sequence (P47870 whole entry): T4 sequence (P47870 whole entry)
T5 sequence (P18507 whole entry): T4 sequence (P18507 whole entry)
T5 sequence (P31644 whole entry): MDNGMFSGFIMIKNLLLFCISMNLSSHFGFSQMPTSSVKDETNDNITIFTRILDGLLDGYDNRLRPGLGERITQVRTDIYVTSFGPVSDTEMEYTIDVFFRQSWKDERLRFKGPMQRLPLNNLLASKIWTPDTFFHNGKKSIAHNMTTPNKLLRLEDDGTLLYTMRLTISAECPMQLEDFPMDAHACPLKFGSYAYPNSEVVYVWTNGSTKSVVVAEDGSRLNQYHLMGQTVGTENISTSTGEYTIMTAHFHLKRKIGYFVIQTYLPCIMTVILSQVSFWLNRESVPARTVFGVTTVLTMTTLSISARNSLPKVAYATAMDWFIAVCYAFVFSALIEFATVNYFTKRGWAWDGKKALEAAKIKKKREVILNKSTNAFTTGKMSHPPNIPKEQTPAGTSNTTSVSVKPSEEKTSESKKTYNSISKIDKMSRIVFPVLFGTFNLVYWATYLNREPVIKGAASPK

[10] = molecular target: Gamma-aminobutyric acid receptor subunit alpha-4/beta-2/gamma-2 (Homo sapiens, UniProt P47870+P18507+P48169); assay: Agonist activity at recombinant human GABA-A alpha4beta2gamma2S receptor transiently expressed in human tsA201 cells assessed as GABA-induced maximum response incubated for 30 mins and measured up to 90 secs by FMP dye based FLIPR membrane potential blue assay relative to GABA; format: cell-based
[11] = molecular target: T3, Gamma-aminobutyric acid receptor subunit rho-1; assay: Agonist activity at recombinant human GABA-A rho-1 receptor transiently expressed in human tsA201 cells assessed as GABA-induced maximum response incubated for 30 mins and measured up to 90 secs by FMP dye based FLIPR membrane potential blue assay relative to GABA; format: cell-based
cells = format: cell-based; settings: Homo sapiens, tsA201, 0.5 h
Homo sapiens = species on record: Homo sapiens; assay: Agonist activity at recombinant human GABA-A alpha3beta2gamma2S receptor transiently expressed in human tsA201 cells assessed as GABA-induced maximum response incubated for 30 mins and measured up to 90 secs by FMP dye based FLIPR membrane potential blue assay relative to GABA; format: cell-based
[12] = molecular target: T6, Sodium- and chloride-dependent GABA transporter 3 (Homo sapiens) (UniProt P48066); assay: Inhibition of human GAT3 expressed in Flp-In CHO cells assessed as reduction in [3H]GABA uptake at 100 uM incubated for 3 mins by liquid scintillation counting method relative to control; format: cell-based
T6 sequence (whole entry): T2 sequence (P48066 whole entry)

[13] = molecular target: Sodium- and chloride-dependent GABA transporter 1 (Homo sapiens, UniProt P30531); assay: Inhibition of human GAT1 expressed in Flp-In CHO cells assessed as reduction in [3H]GABA uptake at 100 uM incubated for 3 mins by liquid scintillation counting method relative to control; format: cell-based
Chain of Sodium- and chloride-dependent GABA transporter 1 (P30531 whole entry, looked up): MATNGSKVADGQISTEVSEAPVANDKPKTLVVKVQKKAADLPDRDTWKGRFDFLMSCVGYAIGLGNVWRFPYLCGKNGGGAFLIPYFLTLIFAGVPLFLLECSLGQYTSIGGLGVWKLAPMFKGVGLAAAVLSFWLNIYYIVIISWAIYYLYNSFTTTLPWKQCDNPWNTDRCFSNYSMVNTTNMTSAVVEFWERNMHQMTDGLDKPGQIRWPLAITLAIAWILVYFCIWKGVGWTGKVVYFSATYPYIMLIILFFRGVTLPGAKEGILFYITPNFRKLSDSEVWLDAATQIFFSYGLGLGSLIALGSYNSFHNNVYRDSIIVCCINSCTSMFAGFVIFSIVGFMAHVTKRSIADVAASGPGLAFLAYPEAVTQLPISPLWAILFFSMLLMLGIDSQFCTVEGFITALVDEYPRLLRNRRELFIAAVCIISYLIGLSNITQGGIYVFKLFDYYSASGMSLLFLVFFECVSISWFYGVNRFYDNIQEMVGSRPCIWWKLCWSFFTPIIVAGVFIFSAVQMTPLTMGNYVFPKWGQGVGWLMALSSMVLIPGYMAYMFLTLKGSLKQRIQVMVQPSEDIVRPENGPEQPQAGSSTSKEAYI

[14] = molecular target: T7, Sodium- and chloride-dependent GABA transporter 2 (Homo sapiens) (UniProt Q9NSD5); assay: Inhibition of human GAT2 expressed in Flp-In CHO cells assessed as reduction in [3H]GABA uptake at 100 uM incubated for 3 mins by liquid scintillation counting method relative to control; format: cell-based
T7 sequence (whole entry): T1 sequence (Q9NSD5 whole entry)

[15] = molecular target: T8, Sodium- and chloride-dependent betaine transporter (Homo sapiens) (UniProt P48065); assay: Inhibition of human BGT1 expressed in Flp-In CHO cells assessed as reduction in [3H]GABA uptake at 100 uM incubated for 3 mins by liquid scintillation counting method relative to control; format: cell-based
T8 sequence (whole entry): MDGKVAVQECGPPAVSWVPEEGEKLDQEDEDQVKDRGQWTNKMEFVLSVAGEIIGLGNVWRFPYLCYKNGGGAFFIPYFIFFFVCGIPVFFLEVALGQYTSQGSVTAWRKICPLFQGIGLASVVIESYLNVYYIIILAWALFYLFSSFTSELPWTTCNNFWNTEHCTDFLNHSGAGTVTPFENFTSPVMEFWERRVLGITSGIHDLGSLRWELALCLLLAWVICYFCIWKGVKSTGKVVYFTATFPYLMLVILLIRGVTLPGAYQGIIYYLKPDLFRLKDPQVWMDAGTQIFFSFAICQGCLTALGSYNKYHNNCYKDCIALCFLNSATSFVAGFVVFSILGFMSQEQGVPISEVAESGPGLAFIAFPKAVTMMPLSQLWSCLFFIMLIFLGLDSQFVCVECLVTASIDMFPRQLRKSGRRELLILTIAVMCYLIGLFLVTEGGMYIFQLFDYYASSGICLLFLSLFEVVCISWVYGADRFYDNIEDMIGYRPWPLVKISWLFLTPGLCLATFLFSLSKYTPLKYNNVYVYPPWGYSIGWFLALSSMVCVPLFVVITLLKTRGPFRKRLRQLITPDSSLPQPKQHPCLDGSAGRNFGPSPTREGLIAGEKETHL

Compound | pIC50 [1] | pIC50 [2] | Rmax [3] [%] | pEC50 [4] | pKi [5] | pEC50 [6] | Rmax [7] [%] | pEC50 [8] | pEC50 [9] | Rmax [10] [%] | Rmax [11] [%] | pEC50 (cells; read-out: EC50) | EC50 (cells; read-out: pEC50 (converted)) [µM] | Rmax (Homo sapiens) [%] | inhibition [12] [%] | inhibition [13] [%] | inhibition [14] [%] | inhibition [15] [%]
NCCCC(=O)O [GAMMA-AMINOBUTYRIC ACID] | 4.59 | 4.96 | 100 | – | – | – | – | – | – | – | – | – | – | – | – | – | – | –
NC1=N[C@@H](CC(=O)O)CS1 | – | – | 65 | 5.07 | 6.44 | 5.43 | 103 | 4.92 | 6.25 | 53 | 34 | 5.62 | 2.34 | 102 | – | – | – | –
CC(C(=O)O)C1CSC(N)=N1 (stereo in doubt; l-10a) | – | – | 69 | – | – | – | 97 | – | – | 32 | 63 | – | – | 83 | > 30 | > 30 | > 30 | > 30
